Consider three molecules from article PMC3041857 (Journal of medicinal chemistry, 2011).

The data set deals with MDR1-MDCK cell monolayers.
As for `COc1ccc(-c2csc(Nc3ccc4ccccc4n3)n2)cc1OC` [Compound 18, [4-(3,4-dimethoxyphenyl)-thiazol-2-yl]-quinolin-2-yl-amine], the “Permeability (in words)” value is on record as “greater permeability in the absorptive direction”.
The entry for `Cc1ccc(Nc2nc(-c3c(-c4ccccc4)noc3C)cs2)nc1` [Compound 28, [4-(5-Methyl-3-phenylisoxazol-4-yl)-thiazol-2-yl]-(5-methylpyridin-2-yl)-amine] is “greater permeability in the absorptive direction”.
As for `COc1ccc(-c2csc(Nc3ccc(C(F)(F)F)cn3)n2)cc1OC` [Compound 12, [4-(3,4-dimethoxyphenyl)-thiazol-2-yl]-(5-trifluoromethylpyridin-2-yl)-amine], the “Permeability (in words)” value is recorded as “greater permeability in the absorptive direction”.
